Several values for one entry are separate records, joined by “and”; a condition that tells them apart may be missing. Equal entries are not always repeated. Where two headings read alike, the source gives them in different places.
Assay: Single administration dose escalation study (MTD, body weight, clinical observations), female CD1 mice
Assay type: in vivo
Conditions: for Body weight change, Mean / Body weight change: day 7 vs initial weight; for Body weight change, Mean: group mean; for MTD at 7 days: mouse, in vivo, female CD1 mice
Experimental: Mice were dosed on day 1 and clinical condition recorded at 0.5 h, 2 h, 4 h, 6 h, and days 1–7 (S6 Table).
Gc - general condition observation
X - treatment with compound or vehicle

N#Cc1ccc(/C=C2/C(=O)/C(=C/c3ccc(C#N)cc3)C23CCNCC3)cc1 [Up284]
Body weight, Mean (IV 60 mg/kg single dose, day 2, group mean): 24.77 g
Body weight (IV 60 mg/kg single dose, day 2, individual mice, 60 mg/kg): 27.1 g and 23.4 g and 23.8 g
Body weight, Mean (IV 60 mg/kg single dose, day 3, group mean): 24.73 g
Body weight (IV 60 mg/kg single dose, day 3, individual mice, 60 mg/kg): 26.5 g and 23.7 g and 24.0 g
Body weight, Mean (IV 60 mg/kg single dose, day 4, group mean): 24.93 g
Body weight (IV 60 mg/kg single dose, day 4, individual mice, 60 mg/kg): 26.6 g and 23.5 g and 24.7 g
Body weight, Mean (IV 60 mg/kg single dose, day 5, group mean): 24.83 g
Body weight (IV 60 mg/kg single dose, day 5, individual mice, 60 mg/kg): 26.5 g and 23.3 g and 24.7 g
Body weight, Mean (IV 60 mg/kg single dose, day 6, group mean): 25.30 g
Body weight (IV 60 mg/kg single dose, day 6, individual mice, 60 mg/kg): 26.7 g and 24.1 g and 25.1 g
Body weight, Mean (IV 60 mg/kg single dose, day 7, group mean): 25.27 g
Body weight (IV 60 mg/kg single dose, day 7, individual mice, 60 mg/kg): 26.6 g and 23.9 g and 25.3 g
Body weight change, Mean (IV 60 mg/kg single dose): 3.48%
Body weight change (IV 60 mg/kg single dose, individual mice, 60 mg/kg): 2.31% and 5.29% and 2.85%
Clinical observation (IV 60 mg/kg, day 0, 0.5 h, individual mice, 60 mg/kg): 0
Clinical observation (IV 60 mg/kg, day 0, 2 h, individual mice): 0
Clinical observation (IV 60 mg/kg, day 0, 4 h, individual mice): 0
Clinical observation (IV 60 mg/kg, day 0, 6 h, individual mice): 0
Clinical observation (IV 60 mg/kg, day 0, time 0, individual mice): 0
Clinical observation (IV 60 mg/kg, day 1, individual mice): 0
Clinical observation (IV 60 mg/kg, day 2, individual mice): 0
Clinical observation (IV 60 mg/kg, day 3, individual mice): 0
Clinical observation (IV 60 mg/kg, day 4, individual mice): 0
Clinical observation (IV 60 mg/kg, day 5, individual mice): 0
Clinical observation (IV 60 mg/kg, day 6, individual mice): 0
Clinical observation (IV 60 mg/kg, day 7, individual mice): 0
Body weight, Mean (PO 100 mg/kg single dose, day 0, group mean): 24.70 g
Body weight (PO 100 mg/kg single dose, day 0, individual mice, 100 mg/kg): 27.5 g and 24.7 g and 21.9 g
Body weight, Mean (PO 100 mg/kg single dose, day 1, group mean): 24.30 g
Body weight (PO 100 mg/kg single dose, day 1, individual mice, 100 mg/kg): 26.4 g and 24.4 g and 22.1 g
Body weight, Mean (PO 100 mg/kg single dose, day 2, group mean): 24.77 g
Body weight (PO 100 mg/kg single dose, day 2, individual mice, 100 mg/kg): 27.0 g and 24.5 g and 22.8 g
Body weight, Mean (PO 100 mg/kg single dose, day 3, group mean): 25.10 g
Body weight (PO 100 mg/kg single dose, day 3, individual mice, 100 mg/kg): 27.2 g and 25.0 g and 23.1 g
Body weight, Mean (PO 100 mg/kg single dose, day 4, group mean): 25.30 g
Body weight (PO 100 mg/kg single dose, day 4, individual mice, 100 mg/kg): 27.9 g and 24.5 g and 23.5 g
Body weight, Mean (PO 100 mg/kg single dose, day 5, group mean): 24.77 g
Body weight (PO 100 mg/kg single dose, day 5, individual mice, 100 mg/kg): 26.9 g and 24.4 g and 23.0 g
Body weight, Mean (PO 100 mg/kg single dose, day 6, group mean): 25.50 g
Body weight (PO 100 mg/kg single dose, day 6, individual mice, 100 mg/kg): 28.4 g and 25.0 g and 23.1 g
Body weight, Mean (PO 100 mg/kg single dose, day 7, group mean): 26.10 g
Body weight (PO 100 mg/kg single dose, day 7, individual mice, 100 mg/kg): 29.3 g and 25.6 g and 23.4 g
Body weight change, Mean (PO 100 mg/kg single dose): 5.68%
Body weight change (PO 100 mg/kg single dose, individual mice, 100 mg/kg): 6.55% and 3.64%
Clinical observation (PO 100 mg/kg, day 0, 0.5 h, individual mice): 0
Clinical observation (PO 100 mg/kg, day 0, 2 h, individual mice): 0
Clinical observation (PO 100 mg/kg, day 0, 4 h, individual mice): 0
Clinical observation (PO 100 mg/kg, day 0, 6 h, individual mice): 0
Clinical observation (PO 100 mg/kg, day 0, time 0, individual mice): 0
Clinical observation (PO 100 mg/kg, day 1, individual mice): 0
Clinical observation (PO 100 mg/kg, day 2, individual mice): 0
Clinical observation (PO 100 mg/kg, day 3, individual mice): 0
Clinical observation (PO 100 mg/kg, day 4, individual mice): 0
Clinical observation (PO 100 mg/kg, day 5, individual mice): 0
Clinical observation (PO 100 mg/kg, day 6, individual mice): 0
Clinical observation (PO 100 mg/kg, day 7, individual mice): 0
Body weight, Mean (PO 200 mg/kg single dose, day 0, group mean): 24.70 g
Body weight, Mean (PO 200 mg/kg single dose, day 1, group mean): 24.90 g
Body weight, Mean (PO 200 mg/kg single dose, day 2, group mean): 25.17 g
Body weight, Mean (PO 200 mg/kg single dose, day 3, group mean): 25.07 g
Body weight, Mean (PO 200 mg/kg single dose, day 4, group mean): 25.40 g
Body weight, Mean (PO 200 mg/kg single dose, day 5, group mean): 25.33 g
Body weight, Mean (PO 200 mg/kg single dose, day 6, group mean): 25.63 g
Body weight, Mean (PO 200 mg/kg single dose, day 7, group mean): 25.87 g
Body weight (PO 200 mg/kg single dose, day 7, individual mice, 200 mg/kg): 26.3 g
Body weight change, Mean (PO 200 mg/kg single dose): 4.87%
Body weight change (PO 200 mg/kg single dose, individual mice, 200 mg/kg): 8.68% and 0.00% and 5.93%
Clinical observation (PO 200 mg/kg, day 0, 0.5 h, individual mice): 0
Clinical observation (PO 200 mg/kg, day 0, 2 h, individual mice): 0
Clinical observation (PO 200 mg/kg, day 0, 4 h, individual mice): 0
Clinical observation (PO 200 mg/kg, day 0, 6 h, individual mice): 0
Clinical observation (PO 200 mg/kg, day 0, time 0, individual mice): 0
Clinical observation (PO 200 mg/kg, day 1, individual mice): 0
Clinical observation (PO 200 mg/kg, day 2, individual mice): 0
Clinical observation (PO 200 mg/kg, day 3, individual mice): 0
Clinical observation (PO 200 mg/kg, day 4, individual mice): 0
Clinical observation (PO 200 mg/kg, day 5, individual mice): 0
Clinical observation (PO 200 mg/kg, day 6, individual mice): 0
Clinical observation (PO 200 mg/kg, day 7, individual mice): 0
MTD at 7 days (ip, read-out: MTD, single IP dose): 40 mg/kg
MTD at 7 days (iv, read-out: MTD, single IV dose (not reached at maximum feasible dose)): ≥ 60 mg/kg
MTD at 7 days (po, read-out: MTD, single PO dose (not reached at maximum feasible dose)): ≥ 200 mg/kg

Reference: publication PMC10266688 (PLOS ONE, 2023)
